Laboratory results from patent publication US20190070140A1, “COMPOSITION COMPRISING PROTECTIN DX AS ACTIVE INGREDIENT FOR PREVENTING OR TREATING HYPERLIPIDEMIA OR FATTY LIVER DISEASE” (Solvit P&F, priority 2017, published 2019).

Key:
IRE-1, eIF2α and CHOP [1] = assay: Western-blot assay of ER stress markers in livers of HFD mice; assay type: in vivo, mouse; conditions: PDX i.p. 1 μg/mice/day for 8 weeks, FIG. 5C
Method: (§1) The present study has received the approval of the Institutional Animal Review Committee (Institutional Animal Care and Use Committee in Korea University, Seoul, Korea). The animal experiment was conducted according to the Guide for Care and Use of Laboratory Animals (NH publication, 8th Ed., 2011). A control group and a group of male C57BL/6J(B6) mice at 8 weeks of age were subjected to a normal diet (ND, Brogaarden, Gentofte, Denmark) and a high fat diet (HFD, Research Diets, New Brunswick, N.J., USA) for 8 weeks, respectively. The HFD (high fat diet) group was provided with intra-peritoneal injection of PDX for 8 weeks (1 μg/mice/day). An ethanol injection group was used as a control group. […] A protein sample (35 μg) was applied to 12% SDS-PAGE, transferred to a nitrocellulose film (Amersham Bioscience, Westborough, Mass., USA), detected with a primary antibody, followed by probing with a secondary antibody and another secondary antibody conjugated with horseradish […] (Santa Cruz Biotechnology). The sample was detected by ECL kit. The present inventors have assessed PDX effects upon lipid accumulation in a mouse. For this purpose, a liver cut section from a mouse was subjected to histological assay and western-blot assay through H&E staining and Oil-Red-O staining, while TG accumulation was measured using a TG analysis kit.

influenza virus = conditions: through RNA export system; reported; cited from earlier work
IRE-1, eIF2α and CHOP [2] = assay: Western-blot assay of phosphorylation and expression of ER stress markers in palmitate-treated HepG2 cells; assay type: cell-based, Human; conditions: for expression of ER stress markers IRE-1, eIF2α and CHOP: FIG. 2A
Method: Human liver cells, that is, HepG2 cells (ATCC, Manassas, Va., USA) were cultured in high-glucose Dulbecco's modified eagle medium (DMEM, Invitrogen, Carlsbad, Calif., USA), which includes 10% fetal bovine serum (FBS, Invitrogen), 100 units/mL of penicillin and 100 μg/ml of streptomycin. The cells were incubated at 37° C. under a condition of 5% CO2. Mycoplasma was not detected in HepG2 cells. PDX (Cayman Chemical, Ann Arbor, Mich., USA) was dissolved in ethanol. Sodium palmitate (Sigma, St. Louis, Mo., USA) was mixed with 2% BSA (fatty acid free level; Sigma) in DMEM. […] In all experiments, the cells were treated with palmitate-BSA and PDX for 24 hours, while 2% BSA-ethanol was used as a control group. After collecting HepG2 cells, protein was extracted from the cells with a buffer (PRO-PREF; Intron Biotechnology, Seoul, Korea) at 4° C. for 1 hour. A protein sample (35 μg) was applied to 12% SDS-PAGE, transferred to a nitrocellulose film (Amersham Bioscience, Westborough, Mass., USA), detected with a primary antibody, followed by probing with a secondary antibody and another secondary antibody conjugated with horseradish […] (Santa Cruz Biotechnology). The sample was detected by ECL kit. Under 70% comfluency, 0 to 20 nmol/L […] (si)RNA oligonucleotide to ORP150 purchased from Santa Cruz Biotechnology was transfected to inhibit gene expression. Scramble siRNA was used as a control group. 2 or 4 μg of pCMV3-ORP150 (Sino Biological, Beijing, China) was transiently transfected, leading to over-expression of ORP150. pCMV3 empty-vector was used as a control group. According to instruction of the manufacturer, transfection was executed using lipofectamine 2000 (Invitrogen).

FOXO1 = assay: Western-blot assay of FOXO1 acetylation in HepG2 cells (immuno-precipitation); assay type: cell-based, Human; conditions: 0 to 2 μM PDX, 24 hours, FIG. 3B
Method: After collecting HepG2 cells, protein was extracted from the cells with a buffer (PRO-PREF; Intron Biotechnology, Seoul, Korea) at 4° C. for 1 hour. A protein sample (35 μg) was applied to 12% SDS-PAGE, transferred to a nitrocellulose film (Amersham Bioscience, Westborough, Mass., USA), detected with a primary antibody, followed by probing with a secondary antibody and another secondary antibody conjugated with horseradish […] (Santa Cruz Biotechnology). The sample was detected by ECL kit. Whole protein of HepG2 cell was extracted using an immune-precipitation buffer (IP buffer: 50 mM Tris-HCl, pH 7.8, 150 mM NaCl, 1% IGEPAL CA630) and then diluted to a concentration of 1 mg/mL. A polyclonal antibody to FOXO1 (Santa Cruz Biotechnology) diluted 1:150 was added to the mixture and the sample was incubated at 4° C. overnight. After incubation, each of the samples was provided with 50 μL of a protein A/G-Sepharose bead suspension (Santa Cruz Biotechnology), followed by gently mixing the same at 4° C. for 1 hour. The treated samples were subjected to centrifugation at 12,000 rpm for 30 seconds; and the beads were washed in IP buffer three times. The isolated beads were suspended again in 1×SDS-PAGE loading buffer, heated at 95° C. for 5 minutes, followed by vortexing and flash-centrifugation. […]

SREBP1, FAS and SCD1 = assay: Western-blot assay of adipogenesis-related genes in livers of HFD mice; assay type: in vivo, mouse; conditions: PDX i.p. 1 μg/mice/day for 8 weeks, vs HFD, FIG. 5B
Method: as §1

CC/C=C\C[C@H](O)/C=C/C=C\C=C\[C@@H](O)C/C=C\C/C=C\CCC(=O)O [PDX, 10S,17S-dihydroxy-docosa-4Z,7Z,11E,13Z,15E,19Z-hexaeonic acid]
liver ER stress markers IRE-1, eIF2α and CHOP (IRE-1, eIF2α and CHOP [1]): inhibited
replication of influenza virus (influenza virus): inhibits
expression of ER stress markers IRE-1, eIF2α and CHOP (IRE-1, eIF2α and CHOP [2]; palmitate + PDX + siORP150 (ORP150 silencing)): increased again
phosphorylation and expression of ER stress markers IRE-1, eIF2α and CHOP (IRE-1, eIF2α and CHOP [2]; palmitate-induced, 24 hours, FIG. 1C): significantly decreased depending upon a dose of PDX
expression of ER stress markers IRE-1, eIF2α and CHOP (IRE-1, eIF2α and CHOP [2]; scramble siRNA + palmitate + PDX): reduced
PDX effects of reducing FOXO1 acetylation (FOXO1; HepG2 cells transfected with AMPK siRNA): inhibited
FOXO1 acetylation (FOXO1; HepG2 cells, scramble siRNA): reduced depending upon PDX concentration
expression of adipogenesis-related genes SREBP1, FAS and SCD1 in the liver (SREBP1, FAS and SCD1): significantly reduced
